{"source": "paper PMC6934184", "about": "“Selective DNA-PKcs inhibition extends the therapeutic index of localized radiotherapy and chemotherapy” (The Journal of Clinical Investigation, 2019)", "molecular_target": "T1, ALK R1275Q (Homo sapiens, UniProt Q9UM73, R1275Q)", "T1 construct": "purchased Thermo Fisher Scientific (Life Technologies) SelectScreen", "T1 sequence (Q9UM73 19-1620 R1275Q)": "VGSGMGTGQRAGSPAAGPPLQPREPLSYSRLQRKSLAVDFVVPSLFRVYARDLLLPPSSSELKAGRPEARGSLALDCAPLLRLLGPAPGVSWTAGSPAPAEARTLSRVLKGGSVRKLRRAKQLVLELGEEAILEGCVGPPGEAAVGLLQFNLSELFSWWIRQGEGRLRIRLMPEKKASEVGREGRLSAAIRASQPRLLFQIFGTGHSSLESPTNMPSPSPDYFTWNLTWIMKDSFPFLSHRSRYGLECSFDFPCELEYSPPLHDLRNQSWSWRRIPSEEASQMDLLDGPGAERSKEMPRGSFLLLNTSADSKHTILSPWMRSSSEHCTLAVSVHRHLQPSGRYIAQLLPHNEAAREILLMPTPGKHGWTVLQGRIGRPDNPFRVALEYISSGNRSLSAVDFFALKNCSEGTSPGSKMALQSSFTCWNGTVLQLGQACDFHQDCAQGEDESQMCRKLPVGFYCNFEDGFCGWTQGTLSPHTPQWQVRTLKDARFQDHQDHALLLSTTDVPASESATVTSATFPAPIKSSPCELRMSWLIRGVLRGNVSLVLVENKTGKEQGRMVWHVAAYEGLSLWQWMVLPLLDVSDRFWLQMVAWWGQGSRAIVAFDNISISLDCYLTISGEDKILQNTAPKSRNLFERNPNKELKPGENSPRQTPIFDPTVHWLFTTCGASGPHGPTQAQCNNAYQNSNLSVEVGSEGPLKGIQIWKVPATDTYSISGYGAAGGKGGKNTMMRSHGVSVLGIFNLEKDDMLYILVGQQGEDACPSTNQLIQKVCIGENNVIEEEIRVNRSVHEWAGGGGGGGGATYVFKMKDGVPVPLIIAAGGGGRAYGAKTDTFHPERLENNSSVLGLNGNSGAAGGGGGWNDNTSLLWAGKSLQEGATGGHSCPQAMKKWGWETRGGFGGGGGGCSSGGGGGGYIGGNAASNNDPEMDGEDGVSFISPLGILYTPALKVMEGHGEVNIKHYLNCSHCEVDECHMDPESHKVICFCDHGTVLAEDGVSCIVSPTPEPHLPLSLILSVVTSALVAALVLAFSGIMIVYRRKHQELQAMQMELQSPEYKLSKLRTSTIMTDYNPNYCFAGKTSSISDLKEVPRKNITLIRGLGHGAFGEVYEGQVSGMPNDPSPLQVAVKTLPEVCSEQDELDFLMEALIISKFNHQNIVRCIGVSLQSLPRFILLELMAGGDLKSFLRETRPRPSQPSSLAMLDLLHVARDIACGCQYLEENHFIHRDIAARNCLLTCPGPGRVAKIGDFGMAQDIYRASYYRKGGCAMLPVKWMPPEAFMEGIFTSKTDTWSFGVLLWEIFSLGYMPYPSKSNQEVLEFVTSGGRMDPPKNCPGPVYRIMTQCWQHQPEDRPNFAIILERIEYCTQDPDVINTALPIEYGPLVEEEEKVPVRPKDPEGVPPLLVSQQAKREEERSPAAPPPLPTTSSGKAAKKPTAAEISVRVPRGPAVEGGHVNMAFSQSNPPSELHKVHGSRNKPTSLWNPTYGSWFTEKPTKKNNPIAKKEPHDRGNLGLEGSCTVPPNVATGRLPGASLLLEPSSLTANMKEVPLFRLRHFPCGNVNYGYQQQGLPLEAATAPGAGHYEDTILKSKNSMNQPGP", "assay": "SelectScreen LanthaScreen", "assay_type": "binding", "settings": "read-out: % displacement", "summary_of_the_method": "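NU5455 was profiled across the SelectScreen Broad panel of kinase activity and binding assays. Z'LYTE reactions such as CSF1R ran at apparent Km ATP, while the Adapta CAMK1 assay used ATP listed as 10. Values are given as percent.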", "data": [{"smiles": "CN(C(=O)CN1CCOCC1)c1ccc2sc3c(-c4cccc5c(=O)cc(N6CC7CCC(C6)O7)oc45)cccc3c2c1", "note": "[NU5455]", "values": [{"measurement": "inhibition at 1 µM", "value": 2, "unit": "%"}]}]}
